Where two headings read alike, the source gives them in different places.
How the values were obtained:
[1] = in vitro; conditions: C57, mouse, plasma
From the text: C57 mice were used to prepare blank plasma and brain matrices throughout all binding studies.

[2] = system: H^+/OC antiporter; test: Cellular uptake into hCMEC/D3 cells after intra- and extracellular pH manipulation; format: cell-based, human
[3] = In vivo brain distribution by neuropharmacokinetic assessment at steady state; parameters: species or system mice; conditions: for Kp at 2 h / concentration at 2 h: male, mouse; for Kp at 2 h: brain and plasma
Method: Male Abcb1a/Abcb1b-eKO1 (P-gp knockout) mice and FVB wild-type counterparts (18–24 g at arrival) were obtained from Shanghai Biomodel Organism Science & Technology Development Co. Ltd (Shanghai, China). […] Animals were housed in pairs in a temperature-controlled environment (20–24 °C) with lighting maintained under a 12-h light–dark cycle. Animals were habituated for at least seven days prior to surgery with free access to food and water.
In vivo experiments were conducted to assess the extent of the BBB transport of eletriptan and to elucidate the involvement of active transport processes. All mice were cannulated in the jugular vein for intravenous drug administration. Following surgery, the animals were allowed to recover for 3 days before administration of test compounds. Eletriptan HBr was dosed in P-gp knockout and wild type mice using a loading dose of 2 mg/kg (as bolus) followed by a 2-h constant rate infusion of 3 mg/kg (1.5 mg/kg/h) dissolved in 0.9% NaCl. […] Throughout all studies a dose volume of 10 mL/kg was applied. Serial blood samples were taken from the saphenous vein during the infusion to verify steady state and at the end of infusion. Terminal blood samples were collected from all animals. Brain samples were prepared by homogenization using ultrasonication as described previously [39] and analyzed together with the plasma samples using LC–MS/MS [39].
The total brain and plasma concentration partition coefficient (Kp) was calculated from Eq. 7.7 Kp=Ctot,brain,ss/Ctot,plasma,ss where Ctot,brain,ss and Ctot,plasma,ss is the total drug concentration at steady state in brain and plasma, respectively.
The unbound brain and plasma partition coefficient (Kp,uu) was derived from dividing the unbound brain concentration with the unbound plasma concentration at the end of infusion for each animal. The Kp,uu was calculated from Eq. 8.8 Kp,uu=Ctot,brain,ss·fu,brain/Ctot,plasma,ss·fu,plasma where fu,brain and fu,plasma is the fraction of unbound drug in the brain and plasma, respectively.

[4] = Physicochemical properties extracted from databases
From the text: Triptans are a relatively homogeneous group of drug compounds with similar physicochemical properties, including molecular weights < 400 g/mol and a low to moderate lipophilicity (cLogD values ranging from − 2.1–0.18). […] As a consequence, it is unlikely that triptans cross the brain microvascular endothelium through passive diffusion to a clinically relevant extent. Table 1 summarizes structures and physicochemical properties of the triptans, as well as oxycodone and pyrilamine, which are two prototypical H^+/OC antiporter substrates included in this study.

[5] = system: P-gp; parameters: method as in PMID 12814962; conditions: brain Kp in wild type and mdr1a knockout mice; cited from earlier work

CN1CCC[C@@H]1Cc1c[nH]c2ccc(CCS(=O)(=O)c3ccccc3)cc12 [Eletriptan]
fraction unbound at 1 µM ([1]; fu,brain): 0.083 | fraction unbound at 1 µM ([1]; fu,plasma): 0.4 | Cellular uptake after intracellular alkalization ([2]; acute exposure to 30 mM NH4Cl vs control pH 7.4): decreased | Cellular uptake at extracellular acidification ([2]; extracellular pH 6.8 vs pH 7.4): did not affect | Cellular uptake at extracellular alkalization ([2]; extracellular pH 8.2 vs pH 7.4): slight decrease | Proton-gradient dependence of uptake ([2]; hCMEC/D3 cells): yes | Cellular uptake after intracellular acidification ([2]; preexposure to 30 mM NH4Cl followed by media change vs control): statistically significant increase | Increase of brain uptake (Kp, Kp,uu) in mdr1a/1b knockout vs wild type mice ([3]; knockout vs wild type): > 30 fold | Kp at 2 h ([3]; Abcb1a/Abcb1b-eKO1 (P-gp knockout), intravenous, mdr1a/1b knockout mice, steady state, read-out: Kp (C,brain/C,plasma)): 6.35 ± 0.91 | Kp at 2 h ([3]; Abcb1a/Abcb1b-eKO1 (P-gp knockout), intravenous, mdr1a/1b knockout mice, steady state, read-out: Kp,uu (C,brain·fu,brain)/C,plasma·fu,plasma)): 1.32 | concentration at 2 h ([3]; Abcb1a/Abcb1b-eKO1 (P-gp knockout), brain, intravenous, mdr1a/1b knockout mice, steady state, read-out: C,brain): 1450 ± 175 ng/mL | concentration at 2 h ([3]; Abcb1a/Abcb1b-eKO1 (P-gp knockout), plasma, iv, mdr1a/1b knockout mice, steady state, 2-h i.v. infusion, read-out: C,plasma): 229 ± 6 ng/mL | concentration at 2 h ([3]; FVB (wild type and Abcb1a/Abcb1b knockout), plasma, intravenous, bolus dose followed by 2-h constant infusion, read-out: Plasma concentrations at steady state): 259 ± 30 ng/mL | Kp at 2 h ([3]; FVB wild-type (eletriptan), C57BL/6N (diphenhydramine), intravenous, wild type mice, steady state, read-out: Kp (C,brain/C,plasma)): 0.17 ± 0.016 | Kp at 2 h ([3]; FVB wild-type (eletriptan), C57BL/6N (diphenhydramine), intravenous, wild type mice, steady state, read-out: Kp,uu (C,brain·fu,brain)/C,plasma·fu,plasma)): 0.04 | concentration at 2 h ([3]; FVB wild-type (eletriptan), C57BL/6N (diphenhydramine), brain, intravenous, wild type mice, steady state, read-out: C,brain): 41 ± 5 ng/mL | concentration at 2 h ([3]; FVB wild-type (eletriptan), C57BL/6N (diphenhydramine), plasma, iv, wild type mice, steady state, 2-h i.v. infusion, read-out: C,plasma): 240 ± 18 ng/mL | Overall charge pH 7.4 [4]: Positive | P-gp substrate [5]: substrates of P-gp

Reference: article PMC11071266, “The putative proton-coupled organic cation antiporter is involved in uptake of triptans into human brain capillary endothelial cells” (Fluids and Barriers of the CNS, 2024)
